15 molecules from patent publication US12187723B2 (BRISTOL-MYERS SQUIBB COMPANY, priority 2019, dated 2025) can be followed below.

Assay [1] has as its target T1, human TLR7 (Homo sapiens, UniProt Q9NYK1).
T1 construct: host or cells: HEK-Blue cells
T1 sequence (Q9NYK1 27-1049): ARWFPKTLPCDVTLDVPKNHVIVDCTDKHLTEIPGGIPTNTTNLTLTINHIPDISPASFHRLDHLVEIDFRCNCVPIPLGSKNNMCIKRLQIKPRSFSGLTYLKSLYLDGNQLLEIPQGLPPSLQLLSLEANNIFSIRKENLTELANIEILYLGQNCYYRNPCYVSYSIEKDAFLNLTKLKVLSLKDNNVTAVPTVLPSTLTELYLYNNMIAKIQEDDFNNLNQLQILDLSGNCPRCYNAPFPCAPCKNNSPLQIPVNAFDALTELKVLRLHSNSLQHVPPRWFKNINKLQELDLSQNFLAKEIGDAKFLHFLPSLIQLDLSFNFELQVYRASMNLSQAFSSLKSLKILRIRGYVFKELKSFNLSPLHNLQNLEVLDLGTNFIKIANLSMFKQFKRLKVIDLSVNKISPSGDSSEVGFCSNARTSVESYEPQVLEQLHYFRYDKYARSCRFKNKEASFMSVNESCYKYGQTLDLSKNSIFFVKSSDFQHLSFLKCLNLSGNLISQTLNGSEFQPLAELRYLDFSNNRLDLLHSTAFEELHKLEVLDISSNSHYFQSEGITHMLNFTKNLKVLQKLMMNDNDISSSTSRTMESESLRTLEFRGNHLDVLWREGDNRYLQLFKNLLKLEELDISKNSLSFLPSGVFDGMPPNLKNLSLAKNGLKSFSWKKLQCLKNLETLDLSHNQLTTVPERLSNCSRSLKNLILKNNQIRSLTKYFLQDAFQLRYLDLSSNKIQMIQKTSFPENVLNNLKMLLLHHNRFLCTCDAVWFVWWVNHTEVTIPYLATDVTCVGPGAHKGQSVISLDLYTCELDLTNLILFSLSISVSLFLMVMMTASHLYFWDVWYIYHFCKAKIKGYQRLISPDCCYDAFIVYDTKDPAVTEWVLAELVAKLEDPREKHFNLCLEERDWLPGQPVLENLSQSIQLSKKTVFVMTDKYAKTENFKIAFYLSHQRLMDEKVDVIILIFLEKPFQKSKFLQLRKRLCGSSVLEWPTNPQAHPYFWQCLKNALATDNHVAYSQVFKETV
The experiment in a line: TLR7 inhibition reporter assay (HEK-Blue SEAP). The note with it: HEK-Blue cells overexpressing human TLR7, gardiquimod 7.5 μM, 22 hour incubation. Type of assay: cell-based. Summed up: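 Dose-response testing from 0.05 nM to 50 μM final was done on reporter cells for 22 hours at 37° C. Secreted SEAP was then detected, and inhibition was calculated as percent reduction of the agonist-plus-DMSO signal compared with wells given a known inhibitor.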

Assay [2] deals with T2, human TLR9 (Homo sapiens, UniProt Q9NR96).
T2 construct: host or cells: HEK-Blue cells
T2 sequence (Q9NR96 26-1032): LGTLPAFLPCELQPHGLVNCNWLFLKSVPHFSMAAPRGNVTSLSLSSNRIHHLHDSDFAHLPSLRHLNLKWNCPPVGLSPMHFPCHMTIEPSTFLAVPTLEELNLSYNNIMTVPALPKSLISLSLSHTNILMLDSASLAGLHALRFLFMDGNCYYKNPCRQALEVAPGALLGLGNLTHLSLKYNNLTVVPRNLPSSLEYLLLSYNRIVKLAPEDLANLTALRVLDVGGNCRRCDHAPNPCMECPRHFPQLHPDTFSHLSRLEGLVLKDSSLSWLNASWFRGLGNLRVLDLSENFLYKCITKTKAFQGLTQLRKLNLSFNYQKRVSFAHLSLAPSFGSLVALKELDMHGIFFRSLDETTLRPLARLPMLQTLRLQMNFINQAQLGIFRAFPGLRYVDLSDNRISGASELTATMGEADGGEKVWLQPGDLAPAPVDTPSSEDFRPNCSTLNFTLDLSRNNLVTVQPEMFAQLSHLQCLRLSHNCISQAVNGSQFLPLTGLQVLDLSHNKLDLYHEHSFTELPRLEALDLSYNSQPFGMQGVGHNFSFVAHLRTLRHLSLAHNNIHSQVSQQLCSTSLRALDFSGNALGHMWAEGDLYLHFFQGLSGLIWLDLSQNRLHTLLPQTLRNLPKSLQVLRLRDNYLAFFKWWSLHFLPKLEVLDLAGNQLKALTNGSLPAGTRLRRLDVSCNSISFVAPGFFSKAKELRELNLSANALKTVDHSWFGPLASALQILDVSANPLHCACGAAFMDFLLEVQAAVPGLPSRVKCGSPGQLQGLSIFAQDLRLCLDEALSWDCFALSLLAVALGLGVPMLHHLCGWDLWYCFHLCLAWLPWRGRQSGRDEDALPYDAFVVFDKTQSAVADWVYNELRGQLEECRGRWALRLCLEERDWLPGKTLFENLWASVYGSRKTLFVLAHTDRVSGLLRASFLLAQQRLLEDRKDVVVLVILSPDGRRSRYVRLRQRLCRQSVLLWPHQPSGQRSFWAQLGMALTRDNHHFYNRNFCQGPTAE
The experiment in a line: TLR9 inhibition reporter assay (HEK-Blue SEAP). It counts as cell-based. As to conditions: HEK-Blue cells overexpressing human TLR9, ODN2006 5 nM, 22 hour incubation. In outline: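 Screening used HEK-Blue cells overexpressing one human TLR (7, 8 or 9) and an IFN-β minimal promoter–NF-κB/AP-1 SEAP construct. Stimulation lasted 22 h at 37 °C with receptor-specific agonist: gardiquimod, R848 or ODN2006 at 7.5 μM, 15.9 μM and 5 nM.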
Background: A reporter such as luciferase makes a cellular process visible.

Where only a bound is given, the exact number is not on record here.

For orientation: IC50 means the midpoint of a concentration-inhibition curve. For `COCCN1CCC(n2c(=O)[nH]c3cc(-c4cc(OC)c5ncnn5c4)c(C(C)C)cc32)CC1` [Example 223, 6-isopropyl-5-(8-methoxy-[1,2,4]triazolo[1,5-a]pyridin-6-yl)-1-(1-(2-methoxyethyl)piperidin-4-yl)-1,3-dihydro-2H-benzo[d]imidazol-2-one], the results for the IC50 in assay [1] and in assay [2] were 16.9 nM and 13200 nM, respectively.

For `Cc1cc2c(cc1-c1cc(C)c3ncnn3c1)[nH]c(=O)n2[C@H]1CCCN(C2COC2)C1` [Example 14, (S)-6-methyl-5-(8-methyl-[1,2,4]triazolo[1,5-a]pyridin-6-yl)-1-(1-(oxetan-3-yl)piperidin-3-yl)-1,3-dihydro-2H-benzo[d]imidazol-2-one], the IC50 in assay [1] was 787 nM; in assay [2] it was above 50000 nM.

In the case of `COc1cc(-c2cc3[nH]c(=O)n([C@H]4CC[C@@H](NCC5CCOCC5)CC4)c3cc2C(C)C)cn2ncnc12` [Example 196, 6-isopropyl-5-(8-methoxy-[1,2,4]triazolo[1,5-a]pyridin-6-yl)-1-((1s,4s)-4-(((tetrahydro-2H-pyran-4-yl)methyl)amino)cyclohexyl)-1,3-dihydro-2H-benzo[d]imidazol-2-one], the IC50 worked out at 4.1 nM in assay [1] and 8960 nM in assay [2].

Consider `Cc1c(-c2cc3[nH]c(=O)n([C@H]4CC[C@@H](NCC5CCOCC5)CC4)c3cc2C(C)C)cn2ncnc2c1C` [Example 200, 5-(7,8-dimethyl-[1,2,4]triazolo[1,5-a]pyridin-6-yl)-6-isopropyl-1-((1s,4s)-4-(((tetrahydro-2H-pyran-4-yl)methyl)amino)cyclohexyl)-1,3-dihydro-2H-benzo[d]imidazol-2-one], for which the IC50 in assay [1] came to 9.02 nM; in assay [2] it was 7050 nM.

As for `Cc1cc2c(cc1-c1cc(C)c3ncnn3c1)[nH]c(=O)n2[C@H]1CCCN(C(C)C)C1` [Example 13, (S)-1-(1-isopropylpiperidin-3-yl)-6-methyl-5-(8-methyl-[1,2,4]triazolo[1,5-a]pyridin-6-yl)-1,3-dihydro-2H-benzo[d]imidazol-2-one], the IC50 in assay [1] was 124 nM; in assay [2] it was 4420 nM.

For `CCc1cc2c(cc1-c1cc(OC)c3ncnn3c1)[nH]c(=O)n2[C@@H]1CCCN(CC)C1` [Example 171, (R)-6-ethyl-1-(1-ethylpiperidin-3-yl)-5-(8-methoxy-[1,2,4]triazolo[1,5-a]pyridin-6-yl)-1,3-dihydro-2H-benzo[d]imidazol-2-one], the IC50 is 4.56 nM in assay [1] and 10700 nM in assay [2].

Turning to `CCc1cc2c(cc1-c1cc(OC)c3ncnn3c1)[nH]c(=O)n2[C@@H]1CCCN(C2CCOC2)C1` (stereo partly drawn) [Example 212, 6-ethyl-5-(8-methoxy-[1,2,4]triazolo[1,5-a]pyridin-6-yl)-1-((3R)-1-(tetrahydrofuran-3-yl)piperidin-3-yl)-1,3-dihydro-2H-benzo[d]imidazol-2-one], the IC50 in assay [1] is 25.4 nM; in assay [2], above 50000 nM.

For `CCc1cc2c(cc1-c1cc(OC)c3ncnn3c1)[nH]c(=O)n2[C@@H]1CCCN(C2CCOCC2)C1` [Example 184, (R)-6-ethyl-5-(8-methoxy-[1,2,4]triazolo[1,5-a]pyridin-6-yl)-1-(1-(tetrahydro-2H-pyran-4-yl)piperidin-3-yl)-1,3-dihydro-2H-benzo[d]imidazol-2-one], the IC50 in assay [1] stood at 12.1 nM; in assay [2], 26600 nM.

As to `CCN[C@H]1CC[C@@H](n2c(=O)[nH]c3cc(-c4cn5ncnc5c(C)c4C)c(C(C)C)cc32)CC1` [Example 189, 5-(7,8-dimethyl-[1,2,4]triazolo[1,5-a]pyridin-6-yl)-1-((1s,4s)-4-(ethylamino)cyclohexyl)-6-isopropyl-1,3-dihydro-2H-benzo[d]imidazol-2-one], the results for the IC50 in assay [1] and in assay [2] were 9.82 nM and above 50000 nM, respectively.

With `Cc1cc2c(cc1-c1cc(C)c3ncnn3c1)[nH]c(=O)n2[C@H]1CCCN(C)C1` [Example 11, (S)-6-methyl-5-(8-methyl-[1,2,4]triazolo[1,5-a]pyridin-6-yl)-1-(1-methylpiperidin-3-yl)-1,3-dihydro-2H-benzo[d]imidazol-2-one], the results for the IC50 in assay [1] and in assay [2] were 276 nM and 9550 nM, respectively.

As for `COc1cc(-c2cc3[nH]c(=O)n(C4CCC(N5CCCC5)CC4)c3cc2C(C)C)cn2ncnc12` (stereo not drawn) [Example 231, 6-isopropyl-5-(8-methoxy-[1,2,4]triazolo[1,5-a]pyridin-6-yl)-1-(4-(pyrrolidin-1-yl)cyclohexyl)-1,3-dihydro-2H-benzo[d]imidazol-2-one], the IC50 in assay [1] was found to be 1.68 nM; in assay [2] it was 15100 nM.

In the case of `COc1cc(-c2cc3[nH]c(=O)n(C4CCC(N5CC(O)(C(F)(F)F)C5)CC4)c3cc2C(C)C)cn2ncnc12` (single isomer, unassigned) [Example 241, 1-(4-(3-hydroxy-3-(trifluoromethyl)azetidin-1-yl)cyclohexyl)-6-isopropyl-5-(8-methoxy-[1,2,4]triazolo[1,5-a]pyridin-6-yl)-1,3-dihydro-2H-benzo[d]imidazol-2-one], the IC50 in assay [1] was 3.01 nM; in assay [2], above 50000 nM.

Consider `CCc1cc2c(cc1-c1cc(OC)c3ncnn3c1)[nH]c(=O)n2[C@@H]1CCCN(CC2CCCC2)C1` [Example 209, (R)-1-(1-(cyclopentylmethyl)piperidin-3-yl)-6-ethyl-5-(8-methoxy-[1,2,4]triazolo[1,5-a]pyridin-6-yl)-1,3-dihydro-2H-benzo[d]imidazol-2-one], for which the values for the concentration for half-maximal inhibition (IC50) in assay [1] and in assay [2] were 7.96 nM and 12700 nM, respectively.

Turning to `CCc1cc2c(cc1-c1cc(OC)c3ncnn3c1)[nH]c(=O)n2[C@H]1CC[C@@H](NC2COC2)CC1` [Example 170, 6-ethyl-5-(8-methoxy-[1,2,4]triazolo[1,5-a]pyridin-6-yl)-1-((1s,4s)-4-(oxetan-3-ylamino)cyclohexyl)-1,3-dihydro-2H-benzo[d]imidazol-2-one], the IC50 in assay [1] stood at 6.25 nM; in assay [2], 20000 nM.

With `CCc1cc2c(cc1-c1cc(OC)c3ncnn3c1)[nH]c(=O)n2[C@@H]1CCCN(C)C1` [Example 174, (R)-6-ethyl-5-(8-methoxy-[1,2,4]triazolo[1,5-a]pyridin-6-yl)-1-(1-methylpiperidin-3-yl)-1,3-dihydro-2H-benzo[d]imidazol-2-one], the results for the IC50 in assay [1] and in assay [2] were 1.14 nM and 7340 nM, respectively.
